Test results reported in patent US20150086480A1, “HETEROARYL INHIBITORS OF PDE4” (Tetra Discovery Partners, LLC, priority 2013, published 2015).

Columns and labels:
[1] = system: recombinant human PDE4; conditions: read-out: reported IC50 with respect to inhibiting recombinant human PDE4; cited from earlier work
[2] = biological target: human PDE4D7 (mutation of serine 54 to aspartic acid) (Homo sapiens, UniProt Q08499, S190D); experiment: Kinetic assay of PDE4 activity (cAMP hydrolysis, coupled-enzyme fluorescence); format: biochemical; conditions: inhibition of cAMP hydrolysis by human PDE4D; each concentration tested in duplicate; FIG. 1; read-out: One-half maximal inhibition of PDE4D (IC50)
Description: PDE4D inhibition is measured by the method of Burgin et al, (2010) Design of Phosphodiesterase Type 4D (PDE4D) Allosteric Modulators for Cognition with Improved Safety. Nature Biotechnology 28:63-70. Each concentration of Example 1 was tested in duplicate (round symbols).
PDE4 activity may be measured by any method known in the art. Here, a kinetic assay of cAMP hydrolysis by purified PDE4 was used, in which PDE4 activity was measured by coupling the formation of the PDE4 reaction product, 5′-adenosine monophosphate, to the oxidation of reduced nicotinamide adenine dinucleotide (NADH) by the use of three coupling enzymes (myokinase, pyruvate kinase and lactate dehydrogenase), which allows fluorescent determination of reaction rates. Assays are performed in 96-well plates in a total volume of 200 μl/well. Compounds are dissolved in dimethylsulfoxide (DMSO) and added to plates in a volume of 10 μl followed by addition of 165 μl of assay mix. Plates are pre-incubated at 25° C. for 15 min and the reactions are initiated by the addition of 25 μl of cAMP followed by thorough mixing. Reaction rates are measured by monitoring the decrease in fluorescence using excitation at 355 nm and emission at 460 nm for a period of 10 min in a fluorescence plate reader. Initial rates (slopes) are determined from linear portions of the progress curves. […]

Chain of human PDE4D7 (mutation of serine 54 to aspartic acid) (Q08499 1-748 isoform Q08499-11 S129D): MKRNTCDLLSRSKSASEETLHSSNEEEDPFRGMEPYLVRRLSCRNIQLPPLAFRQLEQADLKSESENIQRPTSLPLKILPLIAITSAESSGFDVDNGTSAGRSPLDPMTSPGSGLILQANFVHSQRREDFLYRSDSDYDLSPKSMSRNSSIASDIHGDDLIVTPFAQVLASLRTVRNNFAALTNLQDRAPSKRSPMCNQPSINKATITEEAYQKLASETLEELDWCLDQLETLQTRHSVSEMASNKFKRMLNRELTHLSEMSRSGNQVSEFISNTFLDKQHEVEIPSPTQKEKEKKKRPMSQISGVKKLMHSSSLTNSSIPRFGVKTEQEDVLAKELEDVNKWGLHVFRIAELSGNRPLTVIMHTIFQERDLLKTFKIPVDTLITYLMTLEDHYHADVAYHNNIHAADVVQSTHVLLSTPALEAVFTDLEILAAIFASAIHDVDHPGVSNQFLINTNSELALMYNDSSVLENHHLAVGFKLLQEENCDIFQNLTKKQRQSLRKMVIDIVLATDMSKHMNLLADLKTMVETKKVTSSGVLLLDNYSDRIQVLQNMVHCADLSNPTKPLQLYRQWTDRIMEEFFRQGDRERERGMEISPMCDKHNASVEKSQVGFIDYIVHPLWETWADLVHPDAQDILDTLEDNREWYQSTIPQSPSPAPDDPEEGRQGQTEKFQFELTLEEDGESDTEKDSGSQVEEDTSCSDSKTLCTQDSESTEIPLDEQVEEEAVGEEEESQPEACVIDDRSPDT

Row | IC50 [2] [nM] | Structure (SMILES) | IC50 [1] [nM]
1 |  | COc1ccc(C2CNC(=O)C2)cc1OC1CCCC1 (centres unmarked) [rolipram] | ~200
2 | 0.15 | O=[N+]([O-])c1cccc(-c2cc(Cc3ccc(F)cc3)cc3c2OCC3)c1 [Example 1, 5-[(4-fluorophenyl)methyl]-7-(3-nitrophenyl)-2,3-dihydrobenzofuran] | 
